Assays:
[1] = test system: Hepatotoxicity;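 as to HepSE Combined Scores: combined hepatic side effect score as listed in the training data of the Drug Induced Liver Injury Prediction System (DILIps)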;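 as to HepSE bilirubinemia: bilirubinemia hepatic side effect score drawn from the DILIps training data, a prediction system for drug-induced liver injury; call rule not given here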;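 as to HepSE cirrhosis: cirrhosis hepatic side effect score taken from the DILIps (drug-induced liver injury prediction) training set; call rule not given here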;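 as to HepSE jaundice: Jaundice-related hepatic side-effect score drawn from the training data of the DILIps (drug-induced liver injury prediction system); call rule not given here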;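 as to HepSE liver fatty: hepatic side effect score for fatty liver, taken from the DILIps training set for predicting drug-induced liver injury; call rule not given here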;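 as to HepSE liver function tests abnormal: hepatic side effect score taken from the DILIps (drug-induced liver injury prediction system) training data, here covering abnormal liver function test findings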
[2] = test system: Hepatotoxicity; remark: listed apart in the source;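 as to HepSE Combined Scores: combined hepatic side effect score as listed in the training data of the Drug Induced Liver Injury Prediction System (DILIps)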;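 as to HepSE bilirubinemia: bilirubinemia hepatic side effect score drawn from the DILIps training data, a prediction system for drug-induced liver injury; call rule not given here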;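 as to HepSE cirrhosis: cirrhosis hepatic side effect score taken from the DILIps (drug-induced liver injury prediction) training set; call rule not given here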;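 as to HepSE jaundice: Jaundice-related hepatic side-effect score drawn from the training data of the DILIps (drug-induced liver injury prediction system); call rule not given here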;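 as to HepSE liver fatty: hepatic side effect score for fatty liver, taken from the DILIps training set for predicting drug-induced liver injury; call rule not given here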;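 as to HepSE liver function tests abnormal: hepatic side effect score taken from the DILIps (drug-induced liver injury prediction system) training data, here covering abnormal liver function test findings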
[3] = test system: Hepatotoxicity; remark: listed apart in the source;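 as to HepSE Combined Scores: combined hepatic side effect score as listed in the training data of the Drug Induced Liver Injury Prediction System (DILIps)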;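 as to HepSE bilirubinemia: bilirubinemia hepatic side effect score drawn from the DILIps training data, a prediction system for drug-induced liver injury; call rule not given here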;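 as to HepSE cirrhosis: cirrhosis hepatic side effect score taken from the DILIps (drug-induced liver injury prediction) training set; call rule not given here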;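 as to HepSE jaundice: Jaundice-related hepatic side-effect score drawn from the training data of the DILIps (drug-induced liver injury prediction system); call rule not given here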;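 as to HepSE liver fatty: hepatic side effect score for fatty liver, taken from the DILIps training set for predicting drug-induced liver injury; call rule not given here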;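 as to HepSE liver function tests abnormal: hepatic side effect score taken from the DILIps (drug-induced liver injury prediction system) training data, here covering abnormal liver function test findings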
[4] = test system: Hepatotoxicity; remark: listed apart in the source;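 as to HepSE Combined Scores: combined hepatic side effect score as listed in the training data of the Drug Induced Liver Injury Prediction System (DILIps)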;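 as to HepSE bilirubinemia: bilirubinemia hepatic side effect score drawn from the DILIps training data, a prediction system for drug-induced liver injury; call rule not given here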;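 as to HepSE cirrhosis: cirrhosis hepatic side effect score taken from the DILIps (drug-induced liver injury prediction) training set; call rule not given here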;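 as to HepSE jaundice: Jaundice-related hepatic side-effect score drawn from the training data of the DILIps (drug-induced liver injury prediction system); call rule not given here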;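 as to HepSE liver fatty: hepatic side effect score for fatty liver, taken from the DILIps training set for predicting drug-induced liver injury; call rule not given here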
[5] = test system: Hepatotoxicity; remark: listed apart in the source
[6] = test system: Hepatotoxicity; remark: listed apart in the source
[7] = test system: Hepatotoxicity; remark: listed apart in the source
[8] = test system: Hepatotoxicity; remark: listed apart in the source
[9] = test system: Hepatotoxicity; remark: listed apart in the source
[10] = test system: Hepatotoxicity; remark: listed apart in the source
[11] = test system: Hepatotoxicity; remark: listed apart in the source
[12] = test system: Hepatotoxicity; remark: listed apart in the source
[13] = test system: Hepatotoxicity; remark: listed apart in the source
[14] = test system: Hepatotoxicity; remark: listed apart in the source

SMILES | HepSE_cirrhosis [1] | HepSE_liver fatty [2] | HepSE_Combined Scores [3] | HepSE_bilirubinemia [4] | HepSE_jaundice [5] | HepSE_hepatitis [6] | HepSE_liver function tests abnormal [7] | HepSE_hepatomegaly [8] | HepSE_hepatic failure [9] | HepSE_cholelithiasis [10] | HepSE_elevated liver function tests [11] | HepSE_hepatic necrosis [12] | HepSE_cholecystitis [13] | HepSE_liver disease [14] | other results
CN1C(CSCC(F)(F)F)Nc2cc(Cl)c(S(N)(=O)=O)cc2S1(=O)=O (stereo unspecified) [POLYTHIAZIDE] | 0 | 0 | 1 | 0 | 1 | 0 | 0 | 0 | 0 | 0 | 0 | 0 | 0 | 0 | 
CC[C@@H]([C@H](C)O)n1ncn(-c2ccc(N3CCN(c4ccc(OC[C@@H]5CO[C@@](Cn6cncn6)(c6ccc(F)cc6F)C5)cc4)CC3)cc2)c1=O [POSACONAZOLE] | 0 | 0 | 6 | 1 | 1 | 1 | 1 | 1 | 1 | 0 | 0 | 0 | 0 | 0 | 
[Cl-].[K+] [POTASSIUM CHLORIDE] | 0 | 0 | 0 | 0 | 0 | 0 | 0 | 0 | 0 | 0 | 0 | 0 | 0 | 0 | 
C[n+]1ccccc1/C=N/O [PRALIDOXIME] | 0 | 0 | 0 | 0 | 0 | 0 | 0 | 0 | 0 | 0 | 0 | 0 | 0 | 0 | 
CCCN[C@H]1CCc2nc(N)sc2C1 [PRAMIPEXOLE] |  |  |  |  |  |  |  |  |  |  |  |  |  |  | HepSE_cirrhosis ([1]; Liver): 0; HepSE_liver fatty ([2]; Liver): 0; HepSE_Combined Scores ([3]; Liver): 2; HepSE_bilirubinemia ([4]; Liver): 0; HepSE_jaundice ([5]; Liver): 0; HepSE_hepatitis ([6]; Liver): 0; HepSE_liver function tests abnormal ([7]; Liver): 0; HepSE_hepatomegaly ([8]; Liver): 0; HepSE_hepatic failure ([9]; Liver): 0; HepSE_cholelithiasis ([10]; Liver): 1; HepSE_elevated liver function tests ([11]; Liver): 0; HepSE_hepatic necrosis ([12]; Liver): 0; HepSE_cholecystitis ([13]; Liver): 1; HepSE_liver disease ([14]; Liver): 0
CC[C@H](C)C(=O)O[C@H]1C[C@H](O)C=C2C=C[C@H](C)[C@H](CC[C@@H](O)C[C@@H](O)CC(=O)O)[C@H]21 [PRAVASTATIN] | 1 | 0 | 4 | 0 | 1 | 1 | 0 | 0 | 0 | 0 | 0 | 1 | 0 | 0 | 
COc1cc2nc(N3CCN(C(=O)c4ccco4)CC3)nc(N)c2cc1OC [PRAZOSIN] | 0 | 0 | 0 | 0 | 0 | 0 | 0 | 0 | 0 | 0 | 0 | 0 | 0 | 0 | 
CCOC(=O)O[C@]1(C(=O)COC(=O)CC)CC[C@H]2[C@@H]3CCC4=CC(=O)C=C[C@]4(C)[C@H]3[C@@H](O)C[C@@]21C [PREDNICARBATE] | 0 | 0 | 0 | 0 | 0 | 0 | 0 | 0 | 0 | 0 | 0 | 0 | 0 | 0 | 
C[C@]12C=CC(=O)C=C1CC[C@@H]1[C@@H]2[C@@H](O)C[C@@]2(C)[C@H]1CC[C@]2(O)C(=O)CO [PREDNISOLONE] | 0 | 0 | 1 | 0 | 0 | 0 | 0 | 1 | 0 | 0 | 0 | 0 | 0 | 0 | 

From ChEMBL document CHEMBL1909294, “Translating clinical findings into knowledge in drug safety evaluation--drug induced liver injury prediction system (DILIps)” (PLoS Comput Biol, 2011)
